What was measured:
[1] = target: AKT (phospho-Ser^473-AKT) in BxPC-3 (Homo sapiens, UniProt P31749); assay: Western blot phospho-Ser473-AKT in BxPC-3 cells; settings: for inhibition at 10 µM: BXPC-3, read-out: % pAKT Inhibition At 10 μM
pancreatic cancer cells = assay: Cell viability assay (Table 3); settings: for Cell viability (IC50): viability assay, cell line not given; for IC50: Homo sapiens, Pancreatic cancer cell, read-out: Cell viability (IC50)
[2] = target: AKT (phospho-Ser^473-AKT) in MiaPaCa-2 cells (Homo sapiens, UniProt P31749); assay: Western blot phospho-Ser473-AKT in MiaPaCa-2 cells; settings: for pAKT inhibition (IC50): MiaPaCa-2 cells
[3] = test system: BxPC-3 pancreatic cell lines; assay: MTT cell survival, BxPC-3; assay type: cell-based; settings: Homo sapiens; BxPC-3, MTT

AKT (phospho-Ser^473-AKT) in MiaPaCa-2 cells, sequence (P31749 whole entry): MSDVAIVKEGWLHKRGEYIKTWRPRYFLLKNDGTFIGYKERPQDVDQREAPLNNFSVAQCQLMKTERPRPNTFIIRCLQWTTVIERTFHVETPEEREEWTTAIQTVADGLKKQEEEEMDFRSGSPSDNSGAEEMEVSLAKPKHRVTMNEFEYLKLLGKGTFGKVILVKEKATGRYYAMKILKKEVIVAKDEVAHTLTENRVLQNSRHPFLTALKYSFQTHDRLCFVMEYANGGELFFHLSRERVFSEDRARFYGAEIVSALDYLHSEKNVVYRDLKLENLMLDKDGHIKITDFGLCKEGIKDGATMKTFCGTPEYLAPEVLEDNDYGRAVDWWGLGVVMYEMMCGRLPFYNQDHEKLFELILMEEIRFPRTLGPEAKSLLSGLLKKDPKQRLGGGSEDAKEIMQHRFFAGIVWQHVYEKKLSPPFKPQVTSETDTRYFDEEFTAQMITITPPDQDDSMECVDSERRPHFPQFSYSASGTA
AKT (phospho-Ser^473-AKT) in BxPC-3, sequence (P31749 whole entry): as above

Compound: CC(=O)Nc1ccc(S(=O)(=O)Nc2nnc(C)s2)cc1 [Compound 106, N-(4-(N-(5-Methyl-1,3,4-thiadizol-2-yl)sulfamoyl)phenyl)acetamide]
- inhibition at 10 µM [1]: < 10%

Compound: CCCCCCCCCCCCc1ccc(S(=O)(=O)Nc2nnc(CCCCCN(C)c3ccc([N+](=O)[O-])c4nonc34)s2)cc1 [Compound 137, 4-Dodecyl-N-(5-(5-(methyl(7-nitrobenzo[c][1,2,5]oxadiazol-4-yl)amino)pentyl)-1,3,4-thiadiazol-2-yl)benzenesulfonamide]
- AKT phosphorylation inhibition (qualitative) ([1]; BxPC-3 cells): inhibited AKT phosphorylation in a fashion similar to 104

Compound: CCOC(=O)c1nnc(NS(=O)(=O)c2ccc(NC(C)=O)cc2)s1 [Compound 122E, Ethyl 5-(4-Acetamidophenylsulfonamido)-1,3,4-thiadiazole-2-carboxylate]
- inhibition at 10 µM [1]: < 10%

Compound: CCOC(=O)Cc1nnc(NS(=O)(=O)c2ccc(NC(C)=O)cc2)s1 [Compound 118E, Ethyl 2-(5-(4-Acetamidophenylsulfonamido)-1,3,4-thiadiazol-2-yl)acetate]
- inhibition at 10 µM [1]: 55%

Compound: CCCCCCc1ccc(S(=O)(=O)Nc2nncs2)cc1 [Compound 154, 4-Hexyl-N-(1,3,4-thiadiazol-2-yl)benzenesulfonamide]
- inhibition at 10 µM [1]: < 10%

Compound: Cc1cc(C)nc(NS(=O)(=O)c2ccc(NC(=O)c3ccoc3C)cc2)n1 [Compound 447]
- Cell viability (IC50) (pancreatic cancer cells): N/I
- pAKT inhibition (IC50) [2]: N/I

Compound: Cc1cc(C)nc(NS(=O)(=O)c2ccc(NC(=O)c3ccoc3C)cc2)n1 [Compound 446]
- Cell viability (IC50) (pancreatic cancer cells): N/I
- pAKT inhibition (IC50) [2]: N/I

Compound: CC(=O)Nc1ccc(S(=O)(=O)Nc2nnc(S(N)(=O)=O)s2)cc1 [Compound 138, N-(4-(N-(5-Sulfamoyl-1,3,4-thiadiazol-2-yl)sulfamoyl)phenyl)acetamide]
- inhibition at 10 µM [1]: < 10%

Compound: CCCCCCCCCCCCc1ccc(S(=O)(=O)Nc2nnc(CC(=O)OCC)s2)cc1 [Compound 120E, Ethyl 2-(5-(4-Dodecylphenylsulfonamido)-1,3,4-thiadiazol-2-yl)acetate]
- IC50 [3]: 70 µM

Compound: Nc1ccc(S(=O)(=O)Nc2nnc(CC(=O)O)s2)cc1 [Compound 117, 2-(5-(4-Aminophenylsulfonamido)-1,3,4-thiadiazol-2-yl)acetic Acid]
- inhibition at 10 µM [1]: 23%

Compound: O=C(Nc1ccccc1)c1ccccc1NC(=O)c1ccccc1C(=O)O [Compound 439]
- Cell viability (IC50) (pancreatic cancer cells): N/I

Compound: COc1cc(NS(=O)(=O)c2ccc(NC(=O)C(C)(C)C)cc2)nc(OC)n1 [Compound 452]
- Cell viability (IC50) (pancreatic cancer cells): N/I
- pAKT inhibition (IC50) [2]: N/I

Compound: COc1cc(NS(=O)(=O)c2ccc(Nc3ccco3)cc2)nc(OC)n1 [Compound 454]
- pAKT inhibition (IC50) [2]: N/I

Compound: Cc1nnc(NS(=O)(=O)c2ccc(NS(=O)(=O)c3ccc4ccccc4c3)cc2)s1 [Compound 455]
- Cell viability (IC50) (pancreatic cancer cells): did not exhibit cytotoxicity and N/I

Compound: CCCCc1ccc(S(=O)(=O)Nc2nncs2)cc1 [Compound 155, 4-Butyl-N-(1,3,4-thiadiazol-2-yl)benzenesulfonamide]
- inhibition at 10 µM [1]: < 10%

Compound: CC(=O)Nc1ccc(S(=O)(=O)Nc2nnc(CC(=O)O)s2)cc1 [Compound 118, 2-(5-(4-Acetamidophenylsulfonamido)-1,3,4-thiadiazol-2-yl)acetic Acid]
- inhibition at 10 µM [1]: 19%

Compound: CCCCCCCCCCCCc1ccc(S(=O)(=O)Nc2nnc(CO)s2)cc1 [Compound 128, 4-Dodecyl-N-(5-(hydroxymethyl)-1,4-thiadiazol-2-yl)benzenesulfonamide]
- IC50 [3]: 37 µM

Compound: COc1ccc(NC(=O)c2ccccc2NC(=O)c2ccccc2C(=O)O)c(OC)c1 [Compound 442]
- Cell viability (IC50) (pancreatic cancer cells): N/I
- pAKT inhibition (IC50) [2]: N/I

Compound: O=C(Nc1ccccc1SCCS(=O)(=O)c1ccc(Cl)cc1)c1ccccc1Cl [Compound 436]
- Cell viability (IC50) (pancreatic cancer cells): N/I
- pAKT inhibition (IC50) [2]: N/I

Compound: Cc1noc(C)c1S(=O)(=O)Nc1ccc(Oc2c(Cl)cccc2Cl)nc1 [Compound 448]
- IC50 (pancreatic cancer cells): 80 µM
- pAKT inhibition (IC50) [2]: N/I

Compound: O=S(=O)(Nc1nccs1)c1ccc2ccccc2c1 [Compound 437]
- Cell viability (IC50) (pancreatic cancer cells): N/I
- pAKT inhibition (IC50) [2]: N/I

Compound: Nc1ccc(S(=O)(=O)Nc2ccc(S(=O)(=O)Nc3nnc(S(N)(=O)=O)s3)cc2)cc1 [Compound 456]
- Cell viability (IC50) (pancreatic cancer cells): N/I

Compound: CCc1nnc(NS(=O)(=O)c2ccc(NC(C)=O)cc2)s1 [Compound 110, N-(4-(N-(5-Ethyl-1,3,4-thiadizol-2-yl)sulfamoyl)phenyl)acetamide]
- inhibition at 10 µM [1]: 45%

Compound: Cc1onc(-c2ccccc2)c1C(=O)Nc1ccc(S(=O)(=O)Nc2ncccn2)cc1 [Compound 453]
- Cell viability (IC50) (pancreatic cancer cells): N/I
- pAKT inhibition (IC50) [2]: N/I

Compound: CC(=O)Nc1ccc(NS(=O)(=O)c2c(C)noc2C)cc1 [Compound 451]
- Cell viability (IC50) (pancreatic cancer cells): N/I
- pAKT inhibition (IC50) [2]: N/I

Compound: Nc1ccc(S(=O)(=O)Nc2nnc(S(N)(=O)=O)s2)cc1 [Compound 131, 5-(4-Aminophenylsulfonamido)-1,3,4-thiadiazole-2-sulfonamide]
- inhibition at 10 µM [1]: 18%

Compound: COc1cc(NS(=O)(=O)c2ccc(Nc3ccco3)cc2)nc(OC)n1 [Compound 444]
- Cell viability (IC50) (pancreatic cancer cells): N/I

Compound: CCOc1ccccc1C(=O)Nc1ccccc1C(=O)O [Compound 441]
- Cell viability (IC50) (pancreatic cancer cells): N/I
- IC50 [2]: 25 µM

Compound: CCCCCCCCc1ccc(S(=O)(=O)Nc2nncs2)cc1 [Compound 153, 4-Octyl-N-(1,3,4-thiadiazol-2-yl)benzenesulfonamide]
- inhibition at 10 µM [1]: 10%

Compound: CC(=O)Nc1ccc(S(=O)(=O)Nc2nnc(CO)s2)cc1 [Compound 126, N-(4-(N-(5-(hydroxymethyl)-1,3,4-thiadiazol-2-yl)sulfamoyl)phenyl)acetamide]
- inhibition at 10 µM [1]: < 10%

Compound: CCCCCCCCCCCCc1ccc(S(=O)(=O)Nc2nnc(C(=O)OCC)s2)cc1 [Compound 124E, Ethyl 5-(4-dodecylphenylsulfonamido)-1,3,4-thiadiazole-2-carboxylate]
- IC50 [3]: 36 µM

Compound: CC(C)(C)c1nnc(NS(=O)(=O)c2ccc(N)cc2)s1 [Compound 113, 4-Amino-N-(5-tert-butyl-1,3,4-thiadiazol-2-yl)benzenesulfonamide]
- inhibition at 10 µM [1]: 13%

Compound: COc1cc(NS(=O)(=O)c2ccc(NC(=O)c3ccco3)cc2)nc(OC)n1 [Compound 445]
- Cell viability (IC50) (pancreatic cancer cells): N/I

Compound: CCc1nnc(NS(=O)(=O)c2ccc(N)cc2)s1 [Compound 109, 4-Amino-N-(5-ethyl-1,3,4-thiadiazol-2-yl)benzenesulfonamide]
- inhibition at 10 µM [1]: 16%

Compound: COc1cccc(OC)c1C(=O)Nc1ccc(S(=O)(=O)Nc2ccccn2)cc1 [Compound 449]
- IC50 (pancreatic cancer cells): 190 µM
- pAKT inhibition (IC50) [2]: N/I

Compound: COc1cc(NS(=O)(=O)c2ccc(C(C)=O)cc2)nc(OC)n1 [Compound 450]
- Cell viability (IC50) (pancreatic cancer cells): N/I

Compound: Cc1nnc(NS(=O)(=O)c2ccc(N)cc2)s1 [Compound 105, 4-Amino-N-(5-methyl-1,3,4-thiadiazol-2-yl)benzenesulfonamide]
- inhibition at 10 µM [1]: 11%

Compound: CC(=O)Nc1ccc(S(=O)(=O)Nc2nnc(C(C)(C)C)s2)cc1 [Compound 114, N-(4-(N-(5-tert-Butyl-1,3,4-thiadiazol-2-yl)sulfamoyl)phenyl)acetamide]
- inhibition at 10 µM [1]: 20%

Compound: Nc1ccc(S(=O)(=O)Nc2nnc(CO)s2)cc1 [Compound 125, 4-Amino-N-(5-(hydroxymethyl)-1,3,4-thiadiazol-2-yl)benzenesulfonamide]
- inhibition at 10 µM [1]: 10%

Compound: O=C(O)c1ccccc1C(=O)Nc1ccccc1N1CCOCC1 [Compound 438]
- Cell viability (IC50) (pancreatic cancer cells): N/I
- pAKT inhibition (IC50) [2]: N/I
